# Measurements as given in patent US7906128B2, “Use of neuronal sodium channel antagonists for the control of ectoparasites in homeothermic animals” (priority 2003, dated 2011).
# Experiments:
# [1] = tested on: newly emerged larvae of blowfly, Lucilia sericata; assay: Efficacy against blowfly larvae on treated filter paper discs; settings: for LC50: Lucilia sericata
# Procedure: In this evaluation, filter paper discs are treated with an acetone solution of test compound and allowed to dry.
# adult fleas = assay: Efficacy against adult fleas on beagles, full body spray; format: in vivo; settings: full body spray 0.40% (wt/vol), Compound A 20 mg/kg, Standard 14.5 mg/kg body wt.
# Procedure: In this evaluation twelve beagles are each infested with 100 unfed adult fleas. Each dog is assessed for its ability to retain fleas by a comb count taken 24 hours post infestation. The dogs are blocked by these flea counts and randomly assigned to one of four treatment groups. Test compounds are applied as a full body spray of a 0.40% (wt/vol) solution of test compound in a mixture of 1% Miglyol in N-methyl-2-pyrrolidinone. One day prior to treatment each dog is infested with 100 fleas and one day post treatment the dogs are comb counted to check for knockdown efficacy. The dogs were subsequently re-infested with fleas and comb counted 24 hours later at weekly intervals.
compound,measurement,setting,value
"N#Cc1nn(-c2c(Cl)cc(C(F)(F)F)cc2Cl)c(N)c1[S+]([O-])C(F)(F)F (centres unmarked) [Standard, fipronil]",LC50,[1]; 24 h,0.1 µg/mL
same,LC50,[1]; 48 h,0.07 µg/mL
same,LC99,[1]; mortality at 24 h,0.40 µg/mL
same,LC99,[1]; mortality at 48 h,0.30 µg/mL
same,% Efficacy relative to nontreated control,adult fleas; 1 DAT,100%
same,% Efficacy relative to nontreated control,adult fleas; 7 DAT,100%
same,% Efficacy relative to nontreated control,adult fleas; 14 DAT,100%
same,% Efficacy relative to nontreated control,adult fleas; 21 DAT,100%
same,% Efficacy relative to nontreated control,adult fleas; 28 DAT,100%
same,% Efficacy relative to nontreated control,adult fleas; 35 DAT,100%
same,% Efficacy relative to nontreated control,adult fleas; 42 DAT,100%
same,% Efficacy relative to nontreated control,adult fleas; 49 DAT,100%
same,% Efficacy relative to nontreated control,adult fleas; 56 DAT,100%
same,% Efficacy relative to nontreated control,adult fleas; 62 DAT,99.5%
